Experimental data reported in a melting point compilation (Tetko et al.; mined from patent text by program, amines drawn as free bases though some values may be those of a salt).

Point of comparison: `FC(F)(F)c1cc(Nc2nnc(CCCc3cccnc3)c3ccccc23)ccc1Cl`, melting point 142 °C. Against it:
- Cc1c(C2=C(c3cn(C)c4ccccc34)C(=O)NC2=O)c2ccccc2n1C — higher, > 290 °C
- COP(=O)(OC)OCN1C(=O)NC(c2ccccc2)(c2ccccc2)C1=O — lower, 123 to 124 °C
- CC(=O)Nc1ccc(Sc2c(NCC3CC3)cc(C(=O)O)cc2S(N)(=O)=O)cc1 — higher, 200 to 204 °C
- NNc1ccc(Cl)c(Cl)c1Cl — lower, 138 to 140 °C
- COc1ccc(-c2[nH]nc3c2C(=O)c2c(NC(=O)CN4CCOCC4)cccc2-3)cc1 — higher, 295 °C
- CCCCCCC(=O)NNC(=O)OC — lower, 74 to 75 °C
- CCCCCCCCCCCCCCCCCCOc1cc(N)cc(OCc2ccccc2)c1 — lower, 57 to 59 °C
- O=C(Cl)c1cccnc1Oc1cccc(Cl)c1 — lower, 72 to 74 °C
- Cc1oc2c(OC(C)C(N)=O)cccc2c1C (configuration not stated) — lower, 116 to 119 °C
- Cc1nc(-c2ccc(Cl)cc2)n(-c2ccc(S(C)(=O)=O)cc2)n1 — higher, 184 to 185 °C
- CCC(C(=O)O)c1ccc(N[C@@H](CCC(N)=O)C(=O)O)cc1 (some centres not stated) — higher, 166 to 167 °C
- COc1cc(Nc2nccc(-c3cccc(N)c3)n2)cc(OC)c1OC — higher, 166 to 167 °C
- CNC(=O)C(Cc1ccc(OC)cc1)NC(=O)C(CC(C)C)C(CC(=O)NCC(=O)OC(C)(C)C)SC(C)=O (configuration not stated) — higher, 192 to 194 °C
- CCOC(=O)c1c(-c2ccccc2)c2c3ccccc3ccn2c1C — lower, 119 to 121 °C
- CCC(C)NC(Nc1cc(Cl)cc(Cl)c1)=C(C#N)S(=O)(=O)c1ccc(Cl)cc1 (configuration not stated) — higher, 150 to 152 °C
- N#Cc1cccc(-c2nc(S(=O)(=O)C(F)(F)F)cc3cccnc23)c1 — lower, 102 to 104 °C
- Cc1nc(-c2cccnc2)sc1-c1ccnc(Nc2ccc(N3CCCC3)cc2)n1 — higher, 212 to 214 °C
- CCOC(=O)/C=C/c1ccc(OCCOC)cc1Oc1ncc(C(F)(F)F)cc1Cl — lower, 78.2 to 78.5 °C
- O=CN(N=Cc1cccnc1)c1ccccc1 — lower, 129 to 132 °C
- CCOc1ccccc1C(=O)C=Cc1ccc2ccccc2c1 — lower, 96 to 97 °C
- CN(C)C(=O)c1c(Cl)csc1-c1ncc(C(F)(F)F)cc1Cl — lower, 85 to 86 °C
- CN(C)C(N)=C(C#N)C(N)=S — higher, 186 to 187 °C
- COC(=O)C1C(c2ccc(I)cc2)CC2CCC1N2C (configuration not stated) — lower, 101 to 102 °C
- CCCN(CCCNc1ncc(Cc2ccc3c(c2)OCO3)c(=O)[nH]1)c1ccccn1 — lower, 86 to 92 °C
- NC(=O)c1nc(-c2cccc(O)c2)nc2c1[nH]c(=O)n2-c1ccccc1-c1ccccc1 — higher, 293 to 296 °C
- CC1CN(c2ccccc2)N=C1N (configuration not stated) — lower, 83 to 84 °C
- Cc1ccc(F)c(C2CC(=O)c3c(C)ccnc3C2)c1 (configuration not stated) — lower, 92 to 94 °C
- CS(=O)(=O)c1ccc(-c2oc(-c3ccccc3)nc2-c2ccc(F)cc2)cc1 — higher, 204 to 205 °C
- Nc1nc(CN2C(=O)C3(COc4cc5c(cc43)OCO5)c3ccccc32)cs1 (configuration not stated) — higher, 230 to 235 °C
- Cn1c(C(F)(F)F)cc(=O)n(-c2ccc(Cl)c(C=O)c2)c1=O — higher, 151 to 153 °C
- COC(=O)[C@@H](CCN1C(=O)c2ccccc2C1=O)Oc1c(Br)cc(-c2c(Br)ccc3sc4ccccc4c23)cc1Br — lower, 99 to 101 °C
- CCc1noc(-c2ncn(-c3cccc(OC)c3)c2COC)n1 — lower, 66 to 68 °C
- C[C@@H]1CN(Cc2ccccc2)C[C@H]1N (relative stereo) — lower, 74 to 80 °C
- CCCn1c(=O)cc2n(c1=O)CC(CSc1ccccc1)S2 (configuration not stated) — lower, 88 to 89 °C
- CC(C)(C)c1ccc(O)cc1Cl — lower, 65 to 67 °C
- CCC(C(C)=CC(CNC(=O)c1nccnc1N)=NO)[N+](=O)[O-] (configuration not stated) — lower, 139 to 141 °C
- COC(=O)c1ccccc1Oc1ccc([N+](=O)[O-])cc1 — lower, 74 °C
- CSc1nc(C#N)c(I)c(C(F)(F)F)n1 — lower, 68 to 69 °C
- CCc1cc2c(c(CC)n1)CCC(=O)N2 — lower, 90 to 94 °C
- OC1CC2(CCNC2)c2ccc(F)cc21 (configuration not stated) — higher, 162 to 164 °C
- CSc1ccc2c3c(cccc13)C(=O)N2 — higher, 167 to 172 °C
- O=C1O[C@@H](COc2cnsn2)CN1c1ccc(N2C[C@@H]3C[C@H]2CN3Cc2ccccc2)c(F)c1 — lower, 97 to 98 °C
- CC1(C)CC(OC(=O)CCc2cc(-n3nc4ccc(S(=O)(=O)c5ccccc5)cc4n3)c(O)c(C(C)(C)C)c2)CC(C)(C)N1 — lower, 85 to 125 °C
- Cc1cc(O)c(SCc2ccc(Cl)cc2)c(=O)o1 — lower, 139 to 141 °C
- O=C(c1ccccc1)c1cc[nH]c1 — lower, 96 to 97 °C
- CN1C(=O)CCC(C)(C)c2cc(NC(=O)c3ccc(C(=O)O)cc3)ccc21 — higher, > 275 °C
- COC(=O)c1ccc(Cn2c(=O)c(C)c3sc(C(=O)NCc4cccc(F)c4)cn3c2=O)cc1 — higher, 209 to 211 °C
- CCC1(C)C(=CC=C2C(=O)c3ccccc3C2=C(C#N)C#N)N2CCc3cccc1c32 (configuration not stated) — higher, 230 °C
- COc1c(F)cc(Cn2cnnc2S)cc1F — lower, 124 to 126 °C
- CCCN1C(=O)C2CC(c3ccc(N(C)C)cc3)(C2)C1=O — lower, 134 to 135 °C
- COc1ccc(CC(C)CC(=O)O)c(C(C)C)c1OC (configuration not stated) — lower, 100 to 101 °C
- CCc1scc(C(=O)O)c1N — lower, 132 to 133 °C
- CN(C)Cc1cc(C(=O)c2ccc(F)cc2)cc(C(C)(C)C)c1O — lower, 112 to 113 °C
- O=C(O)CCn1nc2ccc(S)nn2c1=O — higher, 174 to 176 °C
- C[N+](C)([O-])c1ccc(/C=C/c2c(F)cccc2F)cc1 — lower, 100 to 103 °C
- O=C(O)Cc1ccc(OCc2c(Cl)cccc2C(=O)O)cc1 — higher, 171 to 173 °C
- Cc1c(CC(=O)O)c2cc(OCc3ccc4ccccc4n3)ccc2n1C — higher, 186 to 188 °C
- CCCCCc1c(C(C)C)nc(C(C)C)c(CO)c1-c1ccc(F)c(F)c1 — lower, 106 to 107 °C
- COC(=O)[C@H](C)NC(=O)CCn1cc(C2=C(c3cn(C)c4ccccc34)C(=O)NC2=O)c2ccccc21 — not separable, 142 to 149 °C
- COc1nc(Br)cnc1NS(=O)(=O)c1ccccc1-c1ccc(CC(C)C)cc1 — higher, 154 to 156 °C
- COC(=O)c1ccc(CNS(C)(=O)=O)cc1S(N)(=O)=O — higher, 185 to 187 °C
- N#CCc1ccc2onc(-c3ccc(Cl)cc3)c2c1 — lower, 118 °C
- CCc1cccc(NC(=O)NC2N=C(c3ccccc3F)c3ccccc3N(CC(=O)N3CC4CCC(CC4)C3)C2=O)c1 (racemic) — higher, 185 to 192 °C
- CCC(=O)OC(C)(CC)c1nc2c(C(F)(F)F)cccc2c(O)c1C(=O)Nc1ccccn1 (configuration not stated) — higher, 192 °C
- O=C(O)c1ccc2c(c1)Cc1ccccc1CO2 — higher, 240 to 244 °C
- CC(C)(C)OC(=O)NCCNCCNC(=O)OC(C)(C)C — lower, 69 to 71 °C
- CSc1ccc(COc2cccc(C(=O)Nc3ccc(C#N)cn3)c2)cc1 — higher, 146 to 147 °C
- CSc1ccc(C2=C(c3ccccc3)C(=O)OC23CCCC3)cc1 — higher, 147 to 148 °C
- CON=C(C)c1cccc(S(N)(=O)=O)c1 — higher, 165 to 166 °C
- Cc1ccccc1-c1c(CS)n(C)c(=O)c2ccccc12 — higher, 184 to 186 °C
- CC#CCOc1ccc(S(=O)C(C(=O)NO)c2cccc3ccccc23)cc1 (configuration not stated) — higher, 159 °C
- COc1cc(-c2nc(-n3nccn3)c3c(C)c(C#N)sc3n2)cc(OC)c1OC — higher, 208 to 210 °C
- Cc1cccc(NC(=O)Nc2c(-c3ccccc3)c3cc(Cl)ccc3c(=O)n2C)c1 — higher, > 300 °C
- CCOC(=O)COc1nccc(-c2ccccn2)n1 — lower, 48 to 53 °C
- CCOC(=O)c1[nH]c(CC)nc1C(C)C — higher, 177 to 178 °C
- COCN(c1c(C)ccc2ccccc12)C1COC(=O)C1 (configuration not stated) — lower, 42 to 46 °C
- CCOC(=O)/C=C(\c1ccc(F)cc1)c1cc(OC)c(OC)c(OC)c1 — lower, 133 to 135 °C
- COc1ccc2cnc3c(c2c1)NC(=O)CC3 — higher, 254 to 256 °C
- C=CCOc1ccc(S(=O)(=O)Nc2ccc(Cl)cc2C(=O)c2ccccc2Cl)cc1 — lower, 96 to 97 °C
- CC(O)(C(=O)Nc1ccc(S(=O)(=O)c2ccccc2)cc1[N+](=O)[O-])C(F)(F)F (configuration not stated) — higher, 191 to 192 °C
- O=C1OC(=O)[C@@H]2CCC[C@H]12 — lower, 63 to 68 °C
- Cn1ncnc1COc1nn2c(-c3ccccc3F)nncc2c1-c1ccco1 — higher, 188 to 190 °C
- Cc1ccc(-c2ccc(/C=C/C(=O)Nc3ccc(CN(C)C4CCOCC4)cc3)s2)cc1 — higher, 199 to 201 °C
- COC(=O)C1C(C)OC(=O)C(C)C1NC(=O)OCc1ccccc1 (configuration not stated) — higher, 144 to 146 °C
- CC(C)(C)c1ccc(OC(Cc2ccc(OCCNC(=O)c3ccc(-c4ccccn4)cc3)cc2)C(=O)O)cc1 (configuration not stated) — lower, 94 to 96 °C
- CS(=O)(=O)C(=C1CN(C(c2ccccc2)c2ccccc2)C1)c1cccc2cccnc12 — higher, 212 °C
- O=C1CCC(N2Cc3c(OCc4ccc(CN5CCN(S(=O)(=O)C(F)(F)F)CC5)cc4)cccc3C2=O)C(=O)N1 (configuration not stated) — lower, 135 to 137 °C
- CCC1Cn2c(ncc(-c3nnn[nH]3)c2=O)-c2ccccc21 (configuration not stated) — higher, 254 to 258 °C
- NC(=O)N1C(=O)C(C(=O)c2cccs2)c2ncc(Cl)cc21 (configuration not stated) — higher, > 250 °C
- Nc1ccc(-n2ncnc2-c2ccc(F)cc2)cc1 — higher, 147 to 150 °C
- c1ccc2sc(-c3nc(COc4ccc(CCCn5ccnc5)cc4)co3)cc2c1 — higher, 149 to 150 °C
- CC(C)NC(=O)c1ccc(-c2ccc3oc(C4CCN(C(=O)OC(C)C)CC4)nc3c2)cc1F — higher, 147 to 150 °C
- COc1cc(C(C)C)c2c(c1)S(=O)(=O)N(COc1cc(C(F)(F)F)nn1-c1ccc(Cl)cn1)C2=O — higher, 173 to 174 °C
- CCCCNC(=O)n1sc(OCC)nc1=O — lower, 54 °C
- O=C1CCC(N2C(=O)c3ccccc3C2=O)c2ccsc21 (configuration not stated) — higher, 163 to 166 °C
- CC(=O)c1cc(O)cc2cc(-c3ccc(O)cc3)oc12 — higher, 274 to 276 °C
- CCn1c(C(=O)OC)c(-c2ccc(OC)c(OC)c2)c2cc(OC)c(OC)cc21 — higher, 191 to 192 °C
- CC(=O)OCC1CCc2c(C3=C(c4cn(C)c5ccccc45)C(=O)OC3=O)c3ccccc3n2CC1 (configuration not stated) — lower, 70 °C
- O=c1cc(O)c2c([nH]1)CCCCC2 — higher, > 270 °C
- Cc1cc2n(C)c3ncccc3c(=O)n2n1 — higher, 242 °C
- CSC(C)=NOC(=O)N(C)SCCSN(C)C(=O)ON=C(SC)C(=O)N(C)C — lower, 102 to 106 °C
